Data reported in ChEMBL document CHEMBL1201862, “PubChem BioAssay data set” (2004).
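Dose response: 5 concentrations. Exposure: 48 h. Format: 96-well plates. Endpoint: linear interpolation; highest concentration if not reached. GI50 marks 50% less growth.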 Active and inactive are the calls of the source. No stated cut-off is given here; in the data, active = GI50 up to about 1.1 µM and inactive = higher.

How the values were obtained:
Assay in all cases: NCI-60 cell line screen, 48 h
786-0 = tested on: 786-0
COLO 205 = tested on: COLO 205
DU-145 = tested on: DU-145
HL-60 = tested on: HL-60
IGROV-1 = tested on: IGROV-1
LOX IMVI = tested on: LOX IMVI
MDA-N = tested on: MDA-N
NCI-H226 = tested on: NCI-H226
NCI-H23 = tested on: NCI-H23
NCI-H522 = tested on: NCI-H522
SF-268 = tested on: SF-268
SK-MEL-28 = tested on: SK-MEL-28
SN12C = tested on: SN12C
SNB-19 = tested on: SNB-19
SR = tested on: SR
T47D = tested on: T47D
UACC-257 = tested on: UACC-257
UACC-62 = tested on: UACC-62
A498 = tested on: A498

Measured: GI50

Cc1ncc([N+](=O)[O-])n1CCNC(=O)CCn1ccnc1[N+](=O)[O-]
inactive: 786-0 > 100 µM | COLO 205 > 100 µM | DU-145 > 100 µM | HL-60 > 100 µM | IGROV-1 > 100 µM | LOX IMVI > 100 µM | MDA-N > 100 µM | NCI-H226 > 100 µM | NCI-H23 > 100 µM | NCI-H522 > 100 µM | SF-268 > 100 µM | SK-MEL-28 > 100 µM | SN12C > 100 µM | SNB-19 > 100 µM | SR > 100 µM | T47D > 100 µM | UACC-257 > 100 µM | UACC-62 > 100 µM

CN(C)/N=C/c1cn(C)c(=O)n(C)c1=O
inactive: 786-0 > 100 µM | A498 > 100 µM | COLO 205 > 100 µM | DU-145 > 100 µM | HL-60 > 100 µM | IGROV-1 > 100 µM | LOX IMVI > 100 µM | MDA-N > 100 µM | NCI-H226 > 100 µM | NCI-H23 > 100 µM | NCI-H522 > 100 µM | SF-268 > 100 µM | SK-MEL-28 > 100 µM | SN12C > 100 µM | SNB-19 > 100 µM | T47D > 100 µM | UACC-257 > 100 µM | UACC-62 > 100 µM

CC1N(C)C(=O)OC12CCN(CCCC(=O)c1ccc(F)cc1)CC2 (configuration not stated)
inactive: 786-0 > 100 µM | A498 > 100 µM | COLO 205 > 100 µM | DU-145 > 100 µM | HL-60 > 100 µM | IGROV-1 > 100 µM | LOX IMVI > 100 µM | MDA-N > 100 µM | NCI-H226 > 100 µM | NCI-H23 > 100 µM | NCI-H522 > 100 µM | SF-268 > 100 µM | SK-MEL-28 > 100 µM | SN12C > 100 µM | SNB-19 > 100 µM | T47D > 100 µM | UACC-257 > 100 µM | UACC-62 > 100 µM

CC1(C)Cc2ccccc2C(C)(Cl)C(=O)N1 (configuration not stated)
inactive: 786-0 > 10 µM | A498 > 10 µM | COLO 205 > 10 µM | DU-145 > 10 µM | HL-60 > 10 µM | IGROV-1 > 10 µM | MDA-N > 10 µM | NCI-H226 > 10 µM | NCI-H23 > 10 µM | SF-268 > 10 µM | SK-MEL-28 > 10 µM | SN12C > 10 µM | SNB-19 > 10 µM | SR > 10 µM | T47D > 10 µM | UACC-257 > 10 µM | UACC-62 > 10 µM

O=c1[nH]c2nc3ccccc3c(=O)n2/c1=C/c1ccco1
inactive: 786-0 > 100 µM | COLO 205 > 100 µM | DU-145 > 100 µM | HL-60 > 100 µM | IGROV-1 > 100 µM | LOX IMVI > 100 µM | MDA-N > 100 µM | NCI-H226 > 100 µM | NCI-H23 > 100 µM | NCI-H522 > 100 µM | SF-268 > 100 µM | SK-MEL-28 > 100 µM | SN12C > 100 µM | SNB-19 > 100 µM | SR > 100 µM | T47D 23.4 µM | UACC-257 > 100 µM | UACC-62 > 100 µM

NC(c1ccccc1)(C(F)(F)F)P1(=O)OC(=O)c2ccccc2O1 (configuration not stated)
inactive: 786-0 > 100 µM | A498 84.1 µM | COLO 205 > 100 µM | DU-145 > 100 µM | IGROV-1 > 100 µM | MDA-N > 100 µM | NCI-H226 > 100 µM | NCI-H23 > 100 µM | SF-268 > 100 µM | SK-MEL-28 > 100 µM | SN12C > 100 µM | SNB-19 > 100 µM | SR 71.8 µM | T47D > 100 µM | UACC-257 > 100 µM | UACC-62 > 100 µM

CN/N=C(/C=C/c1ccccc1)C(C)C
inactive: 786-0 > 100 µM | COLO 205 > 100 µM | DU-145 > 100 µM | HL-60 > 100 µM | IGROV-1 > 100 µM | LOX IMVI > 100 µM | MDA-N > 100 µM | NCI-H226 > 100 µM | NCI-H23 > 100 µM | NCI-H522 73.3 µM | SF-268 > 100 µM | SK-MEL-28 > 100 µM | SN12C > 100 µM | SNB-19 > 100 µM | SR > 100 µM | T47D 86.3 µM | UACC-257 > 100 µM | UACC-62 > 100 µM

Cc1nc2c(n1CCCl)C(=O)c1ccccc1C2=O
inactive: 786-0 52.2 µM | COLO 205 14 µM | DU-145 35.4 µM | HL-60 16.3 µM | IGROV-1 11.6 µM | MDA-N 18.7 µM | NCI-H226 18.7 µM | NCI-H23 29.9 µM | NCI-H522 16.7 µM | SF-268 22 µM | SK-MEL-28 42.8 µM | SN12C 30.3 µM | SNB-19 39.1 µM | SR 28.8 µM | T47D > 10 µM | UACC-257 14.1 µM | UACC-62 13 µM

Cc1ccc(O)c(Cc2nc3ccccc3nc2-c2cccc(Br)c2)c1
inactive: 786-0 57 µM | COLO 205 > 100 µM | DU-145 > 100 µM | HL-60 52.1 µM | IGROV-1 46 µM | LOX IMVI > 100 µM | MDA-N > 100 µM | NCI-H226 > 100 µM | NCI-H23 > 100 µM | NCI-H522 44.2 µM | SF-268 > 100 µM | SN12C > 100 µM | SNB-19 19.9 µM | SR 33.2 µM | T47D > 100 µM | UACC-257 45.7 µM | UACC-62 > 100 µM

CC1=[N+](C)CCN1C
inactive: 786-0 > 100 µM | COLO 205 > 100 µM | DU-145 > 100 µM | HL-60 > 100 µM | IGROV-1 > 100 µM | LOX IMVI > 100 µM | MDA-N > 100 µM | NCI-H226 > 100 µM | NCI-H23 > 100 µM | NCI-H522 > 100 µM | SF-268 > 100 µM | SK-MEL-28 > 100 µM | SN12C > 100 µM | SNB-19 > 100 µM | SR > 100 µM | T47D > 100 µM | UACC-257 > 100 µM

CCCCN(CCCC)CC(O)c1cc(-c2ccc(Cl)c(Cl)c2)nc2c(Cl)cc(Cl)cc12 (configuration not stated)
inactive: 786-0 > 100 µM | A498 > 100 µM | COLO 205 > 100 µM | DU-145 > 100 µM | HL-60 88.3 µM | IGROV-1 > 100 µM | LOX IMVI 88.1 µM | MDA-N > 100 µM | NCI-H23 49.5 µM | SF-268 39.7 µM | SK-MEL-28 > 100 µM | SN12C 47.4 µM | SNB-19 > 100 µM | SR 42.6 µM | T47D 37.2 µM | UACC-257 86.1 µM | UACC-62 > 100 µM

NNC(=O)COc1nc(-c2cccs2)nc2ccc(I)cc12
inactive: 786-0 25.5 µM | COLO 205 26.8 µM | DU-145 21.7 µM | IGROV-1 18.4 µM | LOX IMVI 17.6 µM | MDA-N 31.7 µM | NCI-H226 19.9 µM | NCI-H23 15.3 µM | NCI-H522 18.7 µM | SF-268 20.8 µM | SK-MEL-28 24.8 µM | SN12C 23.1 µM | SNB-19 13.4 µM | SR 15.8 µM | T47D 1.47 µM | UACC-62 19.8 µM
